Data as given in patent US7018618B2, “Stable pharmaceutical solution formulations for pressurized metered dose inhalers” (Chiesi Farmaceutici S.p.A., priority 2000, dated 2006).

Experiments:
Format in all cases: physicochemical
[1] = Stability of acidified TA 2005-HFA 134a solutions in cans coated with a fluorocarbon polymer; conditions: for stability (in words): almost three months at 50° C.
Description: (§1) Each value is expressed as percent nominal drug concentration.

[2] = Effect of hydrochloric acid on solution pH′ (acidity function) in model vehicle HFA 43-10MEE (Vertrel XF); conditions: titrated with a strong acid in model vehicle HFA 43-10MEE (Vertrel XF)
Description: The meter reading represents an apparent pH or acidity function (pH′).
(a) 1.0 M hydrochloric acid was added incrementally to 50 mL of HFA 43-10MEE (Vertrel XF) containing 20% w/w ethanol and pH′ measured after each aliquot of acid.

[3] = Stability of acidified TA 2005-HFA 134a solutions in cans coated with a fluorocarbon polymer
[4] = Stability of acidified formoterol/BDP-HFA 134a solutions in cans coated with a fluorocarbon polymer; conditions: HFA 134a/12% ethanol/0.4% isopropyl myristate, 3.25 μl 1.0 M HCl
Description: as §1

## COc1ccc(C[C@@H](C)NC[C@H](O)c2ccc(O)c3[nH]c(=O)ccc23)cc1 [TA 2005, 8-hydroxy-5-[(1R)-1-hydroxy-2-[[(1R)-2-(4-methoxyphenyl)-1-methylethyl]amino]ethyl]-2(1H)-quinolinone]
[1]; 1.0 μl 0.08 M HCl per can (apparent pH about 4.8), 50° C., 22 days upright
  percent nominal drug concentration: 98.3 percent nominal
[1]; 1.0 μl 0.08 M HCl per can (apparent pH about 4.8), 50° C., 83 days upright
  percent nominal drug concentration: 99.4 percent nominal
[1]; 1.0 μl 0.08 M HCl per can (apparent pH about 4.8), Initial, HFA 134a/12% ethanol/1.0% isopropyl myristate, coated cans
  percent nominal drug concentration: 100.0 percent nominal
[1]; 1.4 μl 0.08 M HCl per can (apparent pH about 3.2), 50° C., 22 days upright
  percent nominal drug concentration: 98.2 percent nominal
[1]; 1.4 μl 0.08 M HCl per can (apparent pH about 3.2), 50° C., 83 days upright
  percent nominal drug concentration: 98.8 percent nominal
[1]; 1.4 μl 0.08 M HCl per can (apparent pH about 3.2), Initial
  percent nominal drug concentration: 100.0 percent nominal
[1]; 1.8 μl 0.08 M HCl per can (apparent pH about 2.9), 50° C., 22 days upright
  percent nominal drug concentration: 90.2 percent nominal
[1]; 1.8 μl 0.08 M HCl per can (apparent pH about 2.9), 50° C., 83 days upright
  percent nominal drug concentration: 88.1 percent nominal
[1]; 1.8 μl 0.08 M HCl per can (apparent pH about 2.9), Initial
  percent nominal drug concentration: 100.0 percent nominal
[1]; apparent pH between 3.0 and 5.0, stable = much less than 10% loss of drug
  stability (in words): stable
[1]; apparent pH of less than 3
  stability (in words): not
[2]
  pH′ down to which the titration profile is shallow, thereafter the acidity function drops abruptly: ~5.0
[3]; 1.0 μl 0.08 M hydrochloric acid per can, 3.5 μg/50 μl in HFA 134a/12% ethanol/1.0% isopropyl myristate
  apparent pH: about 4.8
[3]; 1.4 μl 0.08 M hydrochloric acid per can
  apparent pH: ~3.2
[3]; 1.8 μl 0.08 M hydrochloric acid per can
  apparent pH: ~2.9

## CCC(=O)OCC(=O)[C@@]1(OC(=O)CC)[C@@H](C)C[C@H]2[C@@H]3CCC4=CC(=O)C=C[C@]4(C)[C@@]3(Cl)[C@@H](O)C[C@@]21C [BDP, beclometasone dipropionate]
[4]; 4° C., 64 days inverted
  percent nominal drug concentration: 100.10 percent nominal
[4]; 4° C., 123 days inverted
  percent nominal drug concentration: 102.6 percent nominal
[4]; Initial
  percent nominal drug concentration: 99.4 percent nominal
